Data as given in patent publication US5541187A, “6-heterocycyclyl pyrazolo[3,4-d]pyrimidin-4-ones and compositions and method of use thereof” (Sterling Winthrop Inc., priority 1993, dated 1996).

Assays:
[1] = system: Spontaneously hypertensive rats; test: Procedure 2: in vivo reversal of nitroglycerin tolerance, mean arterial pressure; parameters: species or system rat (spontaneously hypertensive rats); settings: nitroglycerin 10 μg/kg i.v.
Description: Spontaneously hypertensive rats (16-19 weeks of age) were made nitroglycerin tolerant by injecting […] nitroglycerin s.c., 3-times/day for 3 days. While conscious and freely moving, the decrease in mean arterial pressure (MAP) in response to a challenge dose of nitroglycerin (10 μg/kg, i.v. bolus) was utilized to confirm tolerance.

[2] = system: aortic rings (aortic smooth muscle strips); test: Procedure 1: in vitro reversal of nitroglycerin tolerance, relaxation of aortic rings; type: cell-based, Male Sprague-Dawley rats; settings: Rattus norvegicus, n=8, mean ±S.E.M.
Description: Male Sprague-Dawley rats (250-350 g body weight) were deeply anesthetized with pentobarbital (50 mg/kg) and then euthanized by exsanguination. The thoracic and abdominal cavities were immediately opened and the aorta was removed. In order to remove the influence of endogenous endothelial relaxing factor (EDRF), the entire length of the aorta was functionally denuded of the endothelial layer by gently scraping the luminal surface with a solid polyethylene catheter. The effectiveness of this procedure was tested in each preparation at the end of the experiment by measuring the vasorelaxant response to 1 μM carbachol, a stimulator of EDRF release. […] Maximal change in contractile tension over a series of nine consecutive 10 minute intervals was recorded and expressed as percent relaxation relative to post pre-treatment, phenylephrine-induced tension. Mean EC50 values were calculated from percent relaxation of individual tissues using a statistical program according to Tallarida and Murray, (Manual of Pharmacologic Calculations with Computer Programs, Springer-Verlag, N.Y. 1987) and are expressed as mean ±S.E.M.

O=[N+]([O-])OCC(CO[N+](=O)[O-])O[N+](=O)[O-] [nitroglycerin, reference compound]
change in MAP in response to nitroglycerin injection ([1]; non-tolerant rats (n=6)): -19 mmHg | change in MAP in response to nitroglycerin injection ([1]; tolerant rats (n=11)): -11 mmHg | EC50 ([2]; 1 h, tolerant strips, pre-exposed to 550 μM nitroglycerin for 60 minutes, p <0.01): 1550 ± 637 nM | EC50 ([2]; vehicle treated, control strips): 77 ± 16 nM
